Several values for one entry are separate records, joined by “and”; a condition that tells them apart may be missing. Equal entries are not always repeated. Where two headings read alike, the source gives them in different places.
Columns and labels:
[1] = system: cats; assay: No-choice acceptance of food, cats (Example 24); assay type: in vivo; details: Feline
From the text: (§1) Acceptance of food containing […]® or DLM was studied to evaluate dietary consumption under no-choice conditions. […] The urine pH of six of the cats was also monitored. The diets described in Tables 39 and 40 above were used.

[2] = system: dogs; assay: No-choice acceptance of food, dogs (Example 24); assay type: in vivo; details: Canine
From the text: as §1

[3] = system: mold; assay: Mold growth in starter mash by CO2 formation in headspace (Examples 7, 8); details: for mold growth (CO2 in headspace), words: 0.2% in starter mash
Method: Fungal growth in basal starter mash was studied in compositions supplemented with DLM or Alimet® as the methionine source. Total microbial growth was monitored by measuring carbon dioxide (CO2) formation in sealed vessels at 28° C. over time.
The technique of using a closed system and measuring CO2 formation has been verified as an approximation of the conditions found in grain storage bins. See, e.g., Muir et al., Trans. ASAE, 28(5) 1673-1675 (1985), the contents of which are hereby incorporated by reference in their entirety.
A mash starter mash feed (formulation shown in Table 9, below) was subdivided into three groups: basal (control), 0.2% DLM, or 0.2% Alimet®. The feed studied had no commercial mold inhibitors added, and is representative of a typical broiler feed.
Initial moisture of the feed was 10.8%. After the addition of Alimet® or DLM, the moisture of the samples was adjusted by the addition of 2%, 4%, or 6% sterile distilled water to promote mold growth, achieving three moisture groups: […].
For each study, four replicate samples of each moisture group were mixed, and 600 g of the mixture was placed into 1 L containers, sealed, and placed at 28° C. in a temperature-controlled room. Draeger Detector tubes (CO2-measuring, obtained from Fisher Scientific) were used to measure the developed CO2 at different days following vessel sealing (two measurements were made per week). Draeger Short-Term Detector Tubes are glass tubes filled with inert carrier and an indicating reagent. The reagent produces a colorimetric indication in the presence of a particular gas (CO2). The concentration of gas is read directly from the discoloration on the tube's printed scale.
The specific mold species present were not identified. Statistical analysis was accomplished by using Duncan's multiple range test (SAS). Different letters on individual time points in FIGS. 9-11 indicate statistical differences of P<0.05.
The experiment described above in Example 7 was repeated with blends of 2.0 lb/ton, 1.5 lb/ton, 1.0 lb/ton or 0.5 lb/ton of 65% propionic acid and either […]. The blends were prepared according to the matrix outlined in Table 8, below. The 65% propionic acid was buffered with ammonium hydroxide to a pH of 5.5.

[4] = system: C. jejuni; assay: C. jejuni colony counts in broth (Example 1); assay type: cell-based; details: for Δ log: Table 4, 6 h, initial 5.23
Method: C. jejuni grown on Campylobacter blood-free selective agar was used for inoculation. Preston broth was incubated under reduced oxygen atmosphere for 6 hours at 37° C. Colony counts were performed.

[5] = system: S. enteritidis; assay: S. enteritidis colony counts in broth (Examples 1-3, 17)
[6] = system: L. plantarum; assay: L. plantarum colony counts in broth (Example 1); assay type: cell-based; details: for Δ log: Table 3, 6 h, log sample − log initial (5.04)
Method: The fresh overnight culture of L. plantarum in brain heart infusion broth were used to inoculate medium 5. The test tubes were incubated under reduced oxygen atmosphere for 6 hours at 37° C. Colony counts were performed.

[7] = system: E. coli; assay type: cell-based; details: for Δ log: Table 2, 4 h, initial 5.24
Method: Colony counts were performed according to standard operating procedures.

[8] = system: E. coli; assay: E. coli colony counts over time in soy broth at pH 4 or 7.3 (Example 5); assay type: cell-based; details: FIG. 5
Method: The cultures were incubated, and colony counts performed at increasing times.

[9] = system: Lactobacillus plantarum; assay: L. plantarum colony counts in broth at pH 3.5 (Example 16); assay type: cell-based; details: log 6 hours − log initial (5.61)
Method: Fresh overnight culture L. plantarum in Brain Heart Infusion broth is used to inoculate medium 5 at a log 4.1 cfu/mL at pH 3.5. The tubes are incubated under oxygen reduced atmosphere for 6 hours at 37° C. Colony counts are performed according standard procedures.

CSCCC(N)C(=O)O (racemic) [DLM, DL-methionine]
Total grams consumed, supplemented food ([1]; DLM 0.25%): 1,842 grams
Total grams consumed, supplemented food ([1]; DLM 0.3%): 1,754 grams
Total grams consumed, supplemented food ([2]; DLM 0.1%): 11,244 grams
Total grams consumed, supplemented food ([2]; DLM 0.15%): 13,542 grams
mold growth (CO2 in headspace), words ([3]; 12.8% moisture, FIG. 11): sharp increase in mold growth after only twenty days
mold growth (CO2 in headspace), words ([3]; 16.8% moisture, FIG. 9): showed mold growth within two days
mold growth, overall comparison ([3]; FIGS. 9, 10, 11, vs untreated and each other): more likely to develop mold

O=CO [formic acid]
Δ log ([4]; 0.108 g/L, pH 4.5): −1.37
Δ log ([4]; 0.108 g/L, pH 6.75): 1.04
Δ log ([4]; 0.30 g/L, pH 4.5): −2.60
Δ log ([4]; 0.30 g/L, pH 6.75): 1.15
Δ log ([4]; 0.83 g/L, pH 4.5): <−3.93
Δ log ([4]; 0.83 g/L, pH 6.75): 1.02
inhibition of C. jejuni ([4]; pH 4.5): comparable inhibition
antibacterial activity against C. jejuni ([4]; pH 6.75): No antibacterial activity
log cfu/mL ([4]; pH 6.75): 6.27 log cfu/mL and 6.38 log cfu/mL and 6.25 log cfu/mL
effect on inhibiting the growth of S. enteritidis ([5]; pH 4.5): neither had a significant effect
reduction in S. enteritidis growth ([5]; pH 4.5): approximately 1.2 log cfu/mL
reduction of growth of S. enteritidis ([5]; pH 4.5): approximately 1.3 log cfu/mL
growth inhibition of S. enteritidis ([5]; pH 6.75): ~1 log cfu/mL
inhibition of S. enteritidis ([5]; pH 6.75): no inhibition
inhibition of L. plantarum [6]: Neither Alimet® nor formic acid inhibited L. plantarum
Δ log ([6]; 0.108 g/L, pH 4.5): 0.71
Δ log ([6]; 0.108 g/L, pH 6.75): 0.84
Δ log ([6]; 0.30 g/L, pH 4.5): 0.70
Δ log ([6]; 0.30 g/L, pH 6.75): 1.19
Δ log ([6]; 0.83 g/L, pH 4.5): 0.52
Δ log ([6]; 0.83 g/L, pH 6.75): 1.15
log cfu/mL ([6]; pH 4.5): 5.75 log cfu/mL and 5.74 log cfu/mL and 5.56 log cfu/mL
Δ log ([7]; 0.108 g/L, pH 4.5): −0.05
Δ log ([7]; 0.108 g/L, pH 6.75): 2.24
Δ log ([7]; 0.30 g/L, pH 4.5): −0.28
Δ log ([7]; 0.30 g/L, pH 6.75): 2.26
Δ log ([7]; 0.83 g/L, pH 4.5): −0.16
Δ log ([7]; 0.83 g/L, pH 6.75): 2.25
inhibition of E. coli ([7]; pH 4.5): little or no inhibition
log cfu/mL ([7]; pH 4.5): 5.19 log cfu/mL and 4.96 log cfu/mL and 5.08 log cfu/mL
log reduction of E. coli growth ([7]; pH 4.5): approximately 0.1 log
inhibition of E. coli ([7]; pH 6.75): Neither Alimet® nor formic acid inhibited E. coli
log cfu/mL ([7]; pH 6.75): 7.48 log cfu/mL and 7.50 log cfu/mL and 7.49 log cfu/mL
decrease of colony counts of E. coli vs hydrochloric acid [8]: better than hydrochloric acid
Δ log ([9]; Table 23, 3 g/kg): −2.42
Δ log ([9]; Table 23, 5 g/kg): −5.91
